Data set [1] in a line: Mouse intestinal secretion assay (suckling mouse assay). The data set is classed as in vivo. Also noted: key to Mouse intestinal secretion assay (suckling mouse): 1+ (lowest activity/potency); ++: Results are graded from 1+ (lowest activity/potency) to 5+ (highest activity/potency); +++: Results are graded from 1+ (lowest activity/potency) to 5+ (highest activity/potency); ++++: Results are graded from 1+ (lowest activity/potency) to 5+ (highest activity/potency); +++++: 5+ (highest activity/potency). To be noted: for Mouse intestinal secretion assay (suckling mouse): graded activity/potency. As for the experimental part: A relevant disease model is the suckling mouse model in which STa (5-18) is deposited into the stomach of 3-4 day old mice, and the accumulation of fluid in their intestines is determined gravimetrically (Parkinson et al., 1994). All GCC peptides were formulated to the desired concentration in Dulbecco's PBS (1×, No Ca++, no Mg++) containing […] immediately prior to dosing. Proteinase inhibitors were prepared as stock solutions in PBS and added to dosing solutions by serial dilution, as needed. The dosing solution (50 μL) was delivered into the stomachs of 2-4 day old mice (3 per dosing group) using a plastic tube attached to the needle of a 1 mL tuberculin syringe. After 3 hours, the animals were sacrificed and dissected to determine the individual weights of the intestines and the rest of the carcass, respectively.

Data set [2] can be described thus: Stability in rat intestinal fluid (Kessler 2008, 2009). The note with it: ileal vs duodenal fluid. The data set is classed as in vitro ADME. As for the experimental part:
According to the present invention, there are additional reasons why the distal jejunum, ileum, cecum and proximal colon are the preferred targets for a GCCR agonist. […] ST peptides are stable in the stomach but are rapidly degraded in the upper intestine. […] However, linaclotide is degraded rapidly in the duodenum. In intestinal fluids from both mouse, rat and humans the peptide loses its C-terminal tyrosine and forms an active metabolite. The half life for linaclotide is 3 minutes in rat intestinal fluid and 1 minute in human intestinal fluid. This metabolite is also rapidly degraded, first by reductases and then by proteases. The half life for the metabolite is about 5 minutes in rat intestinal fluid, and 3 minutes in human intestinal fluid. It is not detectable after 60 minutes in rat intestinal fluid, and after 18 minutes in human intestinal fluid (Kessler et al., 2009; Kessler et al., 2008). Thus, if released in the stomach or duodenum, an ST peptide analogue such as linaclotide will be active only in the duodenum. It is likely that an uroguanylin analogue such as plecanatide is degraded even more rapidly and therefore has an even shorter activity time.
This correlates with the free thiol concentrations in these locations and the activity of the Glutathione Reductase/Glutareduxin system activities in these locations.

For data set [3] the following is noted: cited from earlier work.
The conditions of data set [4]: cited from earlier work. This is another data set of the same source.
For data set [5] the following is noted: human intestinal fluid; cited from earlier work.
The conditions of data set [6]: 12 weeks treatment period; cited from earlier work.
Data set [7] deals with GCC. The note with it: GCC expressed in the jejunum and cecum of the calf; cited from earlier work.
Data set [8] addresses T1, GCC (Homo sapiens, UniProt P25092).
T1 construct: human small intestine (n=20) and colon (n=24) specimens; host or cells: human small intestine and colon specimens
To be noted: read-out: affinity for the interaction with GCC, cited from earlier work.

The target of data set [9] is T2, GCC (Rattus norvegicus, UniProt P23897).
T2 sequence (P23897 23-1072): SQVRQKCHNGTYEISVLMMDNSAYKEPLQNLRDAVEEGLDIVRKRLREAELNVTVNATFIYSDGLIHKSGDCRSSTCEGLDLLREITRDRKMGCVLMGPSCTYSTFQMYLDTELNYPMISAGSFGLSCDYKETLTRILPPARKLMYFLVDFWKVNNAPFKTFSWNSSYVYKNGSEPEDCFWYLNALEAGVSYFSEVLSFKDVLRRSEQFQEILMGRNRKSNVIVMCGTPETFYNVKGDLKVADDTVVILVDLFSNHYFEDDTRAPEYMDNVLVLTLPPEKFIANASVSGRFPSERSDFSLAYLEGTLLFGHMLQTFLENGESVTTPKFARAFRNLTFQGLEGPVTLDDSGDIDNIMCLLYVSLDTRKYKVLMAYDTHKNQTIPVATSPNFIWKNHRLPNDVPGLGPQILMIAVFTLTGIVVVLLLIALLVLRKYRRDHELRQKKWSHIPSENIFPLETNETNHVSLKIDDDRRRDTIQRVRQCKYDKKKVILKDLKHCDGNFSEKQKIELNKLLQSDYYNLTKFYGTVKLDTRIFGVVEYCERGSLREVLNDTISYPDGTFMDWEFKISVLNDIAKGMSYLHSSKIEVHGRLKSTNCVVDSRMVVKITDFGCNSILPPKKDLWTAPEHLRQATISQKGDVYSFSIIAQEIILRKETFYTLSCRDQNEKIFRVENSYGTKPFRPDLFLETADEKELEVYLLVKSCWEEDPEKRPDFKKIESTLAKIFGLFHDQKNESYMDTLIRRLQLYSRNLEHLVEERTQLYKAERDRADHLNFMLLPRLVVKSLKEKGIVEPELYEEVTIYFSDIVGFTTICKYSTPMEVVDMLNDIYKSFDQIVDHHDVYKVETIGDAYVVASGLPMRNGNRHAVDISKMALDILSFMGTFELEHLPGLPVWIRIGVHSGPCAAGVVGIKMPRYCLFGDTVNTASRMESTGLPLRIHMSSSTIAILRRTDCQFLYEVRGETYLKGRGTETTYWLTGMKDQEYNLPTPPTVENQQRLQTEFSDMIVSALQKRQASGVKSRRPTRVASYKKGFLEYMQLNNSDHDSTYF
Also noted: GCC expressed in the duodenum, cecum and colon; host or cells: intestinal tissue (duodenum, cecum, colon). To be noted: GCC expressed in the duodenum, cecum and colon; read-out: affinity (Ki) for GCC; cited from earlier work.

The target of data set [10] is T2, GCC. Details: ligated intestinal loops from Sprague Dawley and Wistar rats; host or cells: rat jejunal and ileal loops in vivo. To be noted: ileum relative to jejunum; cited from earlier work.

Like-named read-outs stand apart in the source and are kept apart here. Residues, ends and D or L forms follow the SMILES beside them.

T1 sequence (P25092 24-1073): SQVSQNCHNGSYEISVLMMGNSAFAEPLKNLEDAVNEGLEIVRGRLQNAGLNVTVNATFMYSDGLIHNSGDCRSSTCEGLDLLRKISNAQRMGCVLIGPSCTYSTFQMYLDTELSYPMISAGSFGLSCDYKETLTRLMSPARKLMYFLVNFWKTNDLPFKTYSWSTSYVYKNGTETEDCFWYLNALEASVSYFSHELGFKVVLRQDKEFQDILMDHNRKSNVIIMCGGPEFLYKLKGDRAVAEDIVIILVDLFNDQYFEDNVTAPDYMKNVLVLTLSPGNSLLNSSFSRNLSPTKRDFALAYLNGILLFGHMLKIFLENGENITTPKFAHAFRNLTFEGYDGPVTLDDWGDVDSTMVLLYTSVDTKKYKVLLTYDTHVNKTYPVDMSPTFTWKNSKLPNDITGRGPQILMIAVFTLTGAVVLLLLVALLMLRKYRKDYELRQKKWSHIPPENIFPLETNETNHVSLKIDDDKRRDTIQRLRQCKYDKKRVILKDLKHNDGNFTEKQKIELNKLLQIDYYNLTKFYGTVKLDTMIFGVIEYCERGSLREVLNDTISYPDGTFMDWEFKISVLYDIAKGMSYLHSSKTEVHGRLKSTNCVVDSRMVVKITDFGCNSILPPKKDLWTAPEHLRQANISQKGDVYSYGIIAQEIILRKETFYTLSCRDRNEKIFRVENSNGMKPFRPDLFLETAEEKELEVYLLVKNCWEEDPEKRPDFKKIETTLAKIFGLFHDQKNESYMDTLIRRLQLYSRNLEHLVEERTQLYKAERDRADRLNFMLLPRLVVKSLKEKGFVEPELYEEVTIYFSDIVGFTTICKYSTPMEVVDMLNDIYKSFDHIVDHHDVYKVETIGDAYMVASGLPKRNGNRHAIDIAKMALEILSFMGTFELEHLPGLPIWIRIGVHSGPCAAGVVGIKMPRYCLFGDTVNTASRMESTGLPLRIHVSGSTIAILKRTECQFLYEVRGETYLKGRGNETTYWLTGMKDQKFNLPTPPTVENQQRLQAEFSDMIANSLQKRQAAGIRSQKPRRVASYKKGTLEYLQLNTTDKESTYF

Regarding `C[C@@H]1NC(=O)[C@@H]2CCCN2C(=O)[C@H](CC(N)=O)NC(=O)[C@@H]2CSSC[C@H](N)C(=O)N[C@H]3CSSC[C@H](NC1=O)C(=O)N[C@@H]([C@@H](C)O)C(=O)NCC(=O)N[C@H](C(=O)N[C@@H](Cc1ccc(O)cc1)C(=O)O)CSSC[C@H](NC(=O)[C@H](Cc1ccc(O)cc1)NC(=O)[C@H](CCC(=O)O)NC3=O)C(=O)N2` [Linaclotide, H2N Cys Cys Glu Tyr Cys Cys Asn Pro Ala Cys Thr Gly Cys Tyr COOH] (HELM PEPTIDE1{C.C.E.Y.C.C.N.P.A.C.T.G.C.Y}$PEPTIDE1,PEPTIDE1,1:R3-6:R3|PEPTIDE1,PEPTIDE1,2:R3-10:R3|PEPTIDE1,PEPTIDE1,5:R3-13:R3$$$V2.0), the “activity in the mouse intestinal secretion assay” value in [1] (FIG. 26, compared to STa) is “lower activity”. The “Mouse intestinal secretion assay (suckling mouse)” value in data set [1] is recorded as “+++”. Also, the “more stable in ileal intestinal fluid compared to the duodenum” value in data set [2] is reported as “up to 100 ×”. Further, the “stable in simulated gastric fluid for” value in [3] was “up to 3 hours”. Further, the half life entry is “about 0.44 minutes” in data set [4] (rat duodenal fluid); “about 30 minutes” in data set [4] (rat ileal fluid); 3 min in data set [4] (rat intestinal fluid); 0.36 min in [4] (rat jejunal fluid); 1 min in data set [5]. Also, the “patients achieving primary efficacy endpoint (three or more CSBMs per week and increase of at least one CSBM per week over baseline for at least nine of 12 weeks)” value in data set [6] is listed as 21%.
On to “H2N Asn Thr Phe Tyr Cys Cys Glu Leu Cys Cys Asn Pro Ala Cys Ala Gly Cys Tyr COOH [STa(1-18)]”, for which the “Mouse intestinal secretion assay (suckling mouse)” value in data set [1] is listed as “++++”. In the data set with GCC [7], the “decrease in the affinity for its receptor” value is 2 log. Moreover, the values for the Ki on GCC [8] (human colon specimens (n=24)), at GCC [8] (human small intestine specimens (n=20)) and at GCC [9] were 1.2 nM, 1.9 nM and 1 to 4 nM, respectively. Besides, on GCC [10], the “duration of response in intestinal loops” value is on record as “significantly longer duration of response in the Ileum relative to the jejunum”.

(Values after patent US8748575B2, “Therapeutic peptides” (Combimab, Inc., priority 2010, dated 2014).)
